Results published in patent US8518964B2, “Tricyclic compounds useful as inhibitors of kinases” (Merck Sharp & Dohme Corp., priority 2006, dated 2013).

target: T1, IKKβ (Homo sapiens, UniProt O14920); assay: Homogenous Time Resolved Fluorescence (HTRF) assay for IKK inhibitory activity; type: biochemical; conditions: read-out: IKKβIC50
T1 construct: His; made in house; host or cells: SF9 insect cells (baculovirus, pVL1393 transfer vector)
T1 sequence (O14920 1-756): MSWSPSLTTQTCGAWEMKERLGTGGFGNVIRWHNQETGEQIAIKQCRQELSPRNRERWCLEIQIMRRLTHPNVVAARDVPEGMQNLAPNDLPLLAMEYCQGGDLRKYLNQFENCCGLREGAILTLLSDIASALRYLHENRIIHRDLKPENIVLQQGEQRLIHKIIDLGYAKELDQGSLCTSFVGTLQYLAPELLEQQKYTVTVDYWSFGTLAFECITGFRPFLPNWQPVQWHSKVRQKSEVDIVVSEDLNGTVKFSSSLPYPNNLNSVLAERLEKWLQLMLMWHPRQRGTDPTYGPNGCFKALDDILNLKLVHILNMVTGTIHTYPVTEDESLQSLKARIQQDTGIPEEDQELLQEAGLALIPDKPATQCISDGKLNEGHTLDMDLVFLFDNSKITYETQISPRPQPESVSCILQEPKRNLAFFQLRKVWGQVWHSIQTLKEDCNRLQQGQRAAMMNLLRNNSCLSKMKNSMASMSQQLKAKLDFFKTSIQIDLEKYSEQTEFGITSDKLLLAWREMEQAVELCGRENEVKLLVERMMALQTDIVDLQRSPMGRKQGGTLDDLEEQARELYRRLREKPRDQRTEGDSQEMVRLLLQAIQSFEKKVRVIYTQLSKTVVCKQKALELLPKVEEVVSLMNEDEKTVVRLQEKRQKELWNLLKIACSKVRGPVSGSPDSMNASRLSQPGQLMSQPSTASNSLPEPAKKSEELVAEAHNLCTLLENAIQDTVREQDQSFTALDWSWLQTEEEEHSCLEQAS
Description: Homogenous Time Resolved Fluorescence (HTRF) Assay for IKK Inhibitory Activity.
This enzyme assay monitors the inhibitory potency of the compounds of Formula I and II to block the catalytic activity of IKKα and IKKβ in vitro. The full-length coding sequences of IKKα and IKKβ are subcloned into the appropriate site of pVL1393 (Pharmingen) to construct a baculovirus transfer vector. Recombinant baculovirus was generated from vector-transfected SF9 cells (BaculoGold™, Invitrogen), cloned, amplified and used to infect SF9 cells for protein production. Recombinant His-tagged IKKα and IKKβ are isolated from the Baculovirus-infected SF9 cells expressing the fusion protein.
An HTRF assay in a 384-well format established on a Biomek FX is used to test the inhibitory activity of compounds of Formula I. The peptide substrate, biotin-DRHDSGLDSMKDE (SEQ. ID.: 1) used to assay IKKβ activity spans residues 28 to 40 of IκBα and was custom synthesized (Synpep). A biotinylated peptide that spans residues 21 to 40 of Iκbα, […] (SEQ. ID.: 2), was used as substrate for IKKα. The assay conditions used to test inhibitory activity of compounds against IKKβ comprises 110 nM recombinant enzyme, 150 nM peptide substrate, 6 μM ATP, 10% (v/v) DMSO, 15 mM MgCl2, 2 mM DTT, and 50 mM Tris/HCl at a pH of 7.5. For IKKα, the reaction mixture comprises 125 nM recombinant enzyme, 400 nM peptide substrate, 6 μM ATP, 10% (v/v) DMSO, 15 mM MgCl2, 2 mM DTT, and 50 mM Tris/HCl at a pH of 7.5. The kinase reaction proceeds for 20 and 35 min for IKKα and IKKβ respectively and then it is quenched by the addition of EDTA to a final concentration of 20 mM. Following completion of the kinase assay, 5 μL of the reaction is quantified by HTRF with a 5 μL detection mix comprising 40 mM HEPES, 100 mM KF, 27.7 nM Streptavidin-tagged-XL665-XLent (CIS-Bio international), 0.3 nM anti-phospho-IκBα mAb (Cell signaling), 1 nM anti-phospho peptide antibody conjugated to Eu (CIS-Bio international). Following excitation at 330 nm, the 665 nm/615 nm emission ratio is measured after a 2-hour incubation at room temperature to quantify the FRET signal.

Question: How did the IC50 turn out when `NC(=O)c1cnc(N)c2c1[nH]c1c(Cl)cccc12` [Example 25, 1-Amino-6-chloro-5H-pyrido[4,3-b]indole-4-carboxamide] was run?
Answer: ≤ 100 nM

Question: For `NC(=O)c1cnc(N2CCC3(CC2)OCc2ccccc23)c2c1[nH]c1ccc(F)cc12` [Example 9, 8-Fluoro-1-(1′H,3H-spiro[2-benzofuran-1,4′-piperidin]-1′-yl)-5H-pyrido[4,3-b]indole-4-carboxamide], which IC50 is on record?
Answer: ≤ 500 nM

Question: How did the IC50 turn out when `NC(=O)c1cnc(N)c2c1sc1c(Cl)cccc12` [Example 3, 1-Amino-6-chloro[1]benzothieno[3,2-c]pyridine-4-carboxamide] was run?
Answer: ≤ 1000 nM

Question: Which IC50 does the source give for `NC(=O)c1cnc(N)c2c1[nH]c1ccc(F)cc12` [Example 6, 1-Amino-8-fluoro-5H-pyrido[4,3-b]indole-4-carboxamide] here?
Answer: ≤ 1000 nM

Question: How did the IC50 turn out when `NC(=O)c1cnc(N)c2c1[nH]c1cc(C(F)(F)F)ccc12` [Example 5, 1-Amino-7-(trifluoromethyl)-5H-pyrido[4,3-b]indole-4-carboxamide] was run?
Answer: ≤ 100 nM

Question: With `CN(C)Cc1ccc(-c2ccc3c(c2)sc2c(C(N)=O)cnc(N)c23)cc1` [Example 21, 1-Amino-7-{4-[(dimethylamino)methyl]phenyl}[1]benzothieno[3,2-c]pyridine-4-carboxamide] as the compound, how does the IC50 read?
Answer: ≤ 500 nM

Question: How did the IC50 turn out when `NC(=O)c1cnc(N)c2c1sc1cc(/C=C/c3ccc(F)cc3)ccc12` [Example 16, 1-Amino-7-[(E)-2-(4-fluorophenyl)vinyl][1]benzothieno[3,2-c]pyridine-4-carboxamide] was run?
Answer: ≤ 500 nM

Question: Which IC50 does the source give for `NC(=O)c1cnc(N)c2c1sc1c(-c3ccccc3)cccc12` [Example 4, 1-Amino-6-phenyl[1]benzothieno[3,2-c]pyridine-4-carboxamide] here?
Answer: ≤ 1000 nM

Question: For `NC(=O)c1cnc(N)c2c1[nH]c1ccc(Br)cc12` [Example 11, 1-Amino-8-bromo-5H-pyrido[4,3-b]indole-4-carboxamide], which IC50 is on record?
Answer: ≤ 1000 nM

Question: How did the IC50 turn out when `CCCCNc1ncc(C(N)=O)c2[nH]c3ccc(F)cc3c12` [Example 8, 1-(Butylamino)-8-fluoro-5H-pyrido[4,3-b]indole-4-carboxamide] was run?
Answer: ≤ 1000 nM
